Measured values as given in PubChem BioAssay AID1918937 (Molecular Pharmacology Branch, DTP, NCI, 2023).

Tested on: 521955-158-R2-J5-PDC complex spheroid viability
Assay: Anticancer human tumor 521955-158-R2-J5-PDC patient-derived pancreatic carcinoma cell line growth inhibition
Conditions: for IC50: curve of first compound; for viability, T/C: stronger effect = lower value
How it was run: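 Complex spheroids of tumor cells with HUVEC and human MSCs, exposed to iadademstat combined with other agents. Each agent tested in half-log steps from near clinical Cmax (else 10 microM top), DMSO ≤0.25%.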

[1] = second compound 0.1 µM, first compound 0.0316 µM
[2] = second compound 0.1 µM, first compound 0.1 µM
[3] = second compound 0.1 µM, first compound 0.316 µM
[4] = second compound 0.1 µM, first compound 1 µM
[5] = second compound 0.316 µM, first compound 0.0316 µM
[6] = second compound 0.316 µM, first compound 0.1 µM
[7] = second compound 0.316 µM, first compound 0.316 µM
[8] = second compound 0.316 µM, first compound 1 µM
[9] = second compound 1 µM, first compound 0.0316 µM
[10] = second compound 1 µM, first compound 0.1 µM
[11] = second compound 1 µM, first compound 0.316 µM
[12] = second compound 1 µM, first compound 1 µM
[13] = second compound 3.16 µM, first compound 0.0316 µM
[14] = second compound 3.16 µM, first compound 0.1 µM
[15] = second compound 3.16 µM, first compound 0.316 µM
[16] = second compound 3.16 µM, first compound 1 µM
[17] = second compound 10 µM, first compound 0.0316 µM
[18] = second compound 10 µM, first compound 0.1 µM
[19] = second compound 10 µM, first compound 0.316 µM
[20] = second compound 10 µM, first compound 1 µM
[21] = second compound 0.1 µM, first compound 0.00949 µM
[22] = second compound 0.1 µM, first compound 0.03 µM
[23] = second compound 0.1 µM, first compound 0.0949 µM
[24] = second compound 0.1 µM, first compound 0.3 µM
[25] = second compound 0.1 µM, first compound 0.949 µM
[26] = second compound 0.1 µM, first compound 3 µM
[27] = second compound 0.316 µM, first compound 0.00949 µM
[28] = second compound 0.316 µM, first compound 0.03 µM
[29] = second compound 0.316 µM, first compound 0.0949 µM
[30] = second compound 0.316 µM, first compound 0.3 µM
[31] = second compound 0.316 µM, first compound 0.949 µM
[32] = second compound 0.316 µM, first compound 3 µM
[33] = second compound 1 µM, first compound 0.00949 µM
[34] = second compound 1 µM, first compound 0.03 µM
[35] = second compound 1 µM, first compound 0.0949 µM
[36] = second compound 1 µM, first compound 0.3 µM
[37] = second compound 1 µM, first compound 0.949 µM
[38] = second compound 1 µM, first compound 3 µM
[39] = second compound 3.16 µM, first compound 0.00949 µM
[40] = second compound 3.16 µM, first compound 0.03 µM
[41] = second compound 3.16 µM, first compound 0.0949 µM
[42] = second compound 3.16 µM, first compound 0.3 µM
[43] = second compound 3.16 µM, first compound 0.949 µM
[44] = second compound 3.16 µM, first compound 3 µM
[45] = second compound 10 µM, first compound 0.00949 µM
[46] = second compound 10 µM, first compound 0.03 µM
[47] = second compound 10 µM, first compound 0.0949 µM
[48] = second compound 10 µM, first compound 0.3 µM
[49] = second compound 10 µM, first compound 0.949 µM
[50] = second compound 10 µM, first compound 3 µM
[51] = second compound 0.1 µM, first compound 0.00316 µM
[52] = second compound 0.1 µM, first compound 0.01 µM
[53] = second compound 0.316 µM, first compound 0.00316 µM
[54] = second compound 0.316 µM, first compound 0.01 µM
[55] = second compound 1 µM, first compound 0.00316 µM
[56] = second compound 1 µM, first compound 0.01 µM
[57] = second compound 3.16 µM, first compound 0.00316 µM
[58] = second compound 3.16 µM, first compound 0.01 µM
[59] = second compound 10 µM, first compound 0.00316 µM
[60] = second compound 10 µM, first compound 0.01 µM
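Note: spheroids exposed to agents for seven days.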
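Throughout, for viability, T/C: percent of DMSO vehicle control luminescence viability.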

CC1(C)CCC(CN2CCN(c3ccc(C(=O)NS(=O)(=O)c4ccc(NCC5CCOCC5)c([N+](=O)[O-])c4)c(Oc4cnc5[nH]ccc5c4)c3)CC2)=C(c2ccc(Cl)cc2)C1 + NC1CCC(NC2CC2c2ccccc2)CC1
IC50 (second compound 0.1 µM): 4200 nM | IC50 (second compound 0.316 µM): 3810 nM | IC50 (second compound 1 µM): 3770 nM | IC50 (second compound 3.16 µM): 3110 nM | IC50 (second compound 10 µM): 3790 nM | viability, T/C [1]: 109% | viability, T/C [2]: 116% | viability, T/C [3]: 112% | viability, T/C [4]: 109% | viability, T/C (second compound 0.1 µM, first compound 3.16 µM): 66.1% | viability, T/C (second compound 0.1 µM, first compound 10 µM): 0.51% | viability, T/C [5]: 119% | viability, T/C [6]: 113% | viability, T/C [7]: 116% | viability, T/C [8]: 111% | viability, T/C (second compound 0.316 µM, first compound 3.16 µM): 59.5% | viability, T/C (second compound 0.316 µM, first compound 10 µM): 0.64% | viability, T/C [9]: 108% | viability, T/C [10]: 105% | viability, T/C [11]: 108% | viability, T/C [12]: 103% | viability, T/C (second compound 1 µM, first compound 3.16 µM): 58.8% | viability, T/C (second compound 1 µM, first compound 10 µM): 0.9% | viability, T/C [13]: 116% | viability, T/C [14]: 124% | viability, T/C [15]: 111% | viability, T/C [16]: 109% | viability, T/C (second compound 3.16 µM, first compound 3.16 µM): 49% | viability, T/C (second compound 3.16 µM, first compound 10 µM): 0.91% | viability, T/C [17]: 119% | viability, T/C [18]: 117% | viability, T/C [19]: 117% | viability, T/C [20]: 115% | viability, T/C (second compound 10 µM, first compound 3.16 µM): 59.1% | viability, T/C (second compound 10 µM, first compound 10 µM): 0.85%

CCN(c1cc(-c2ccc(CN3CCOCC3)cc2)cc(C(=O)NCc2c(C)cc(C)[nH]c2=O)c1C)C1CCOCC1 + NC1CCC(NC2CC2c2ccccc2)CC1
IC50 (second compound 0.1 µM): > 3000 nM | IC50 (second compound 0.316 µM): 2560 nM | IC50 (second compound 1 µM): 1880 nM | IC50 (second compound 3.16 µM): 1730 nM | IC50 (second compound 10 µM): 1490 nM | viability, T/C [21]: 105% | viability, T/C [22]: 105% | viability, T/C [23]: 94.4% | viability, T/C [24]: 83.3% | viability, T/C [25]: 64.6% | viability, T/C [26]: 51% | viability, T/C [27]: 103% | viability, T/C [28]: 99.1% | viability, T/C [29]: 95.8% | viability, T/C [30]: 78.2% | viability, T/C [31]: 71% | viability, T/C [32]: 46.3% | viability, T/C [33]: 103% | viability, T/C [34]: 99.8% | viability, T/C [35]: 93.7% | viability, T/C [36]: 79% | viability, T/C [37]: 66% | viability, T/C [38]: 39.5% | viability, T/C [39]: 96.8% | viability, T/C [40]: 103% | viability, T/C [41]: 96.3% | viability, T/C [42]: 82.8% | viability, T/C [43]: 66.6% | viability, T/C [44]: 35.7% | viability, T/C [45]: 103% | viability, T/C [46]: 101% | viability, T/C [47]: 94.6% | viability, T/C [48]: 83.8% | viability, T/C [49]: 59.6% | viability, T/C [50]: 34.8%

COc1cc(Nc2ncc3c(n2)-c2ccc(Cl)cc2C(c2c(F)cccc2OC)=NC3)ccc1C(=O)O + NC1CCC(NC2CC2c2ccccc2)CC1
IC50 (second compound 0.1 µM): 5.87 nM | IC50 (second compound 0.316 µM): 34 nM | IC50 (second compound 1 µM): 74.5 nM | IC50 (second compound 3.16 µM): 15.2 nM | IC50 (second compound 10 µM): 42.1 nM | viability, T/C [51]: 49.1% | viability, T/C [52]: 54.5% | viability, T/C [1]: 45.8% | viability, T/C [2]: 41.7% | viability, T/C [3]: 44.8% | viability, T/C [4]: 46.7% | viability, T/C [53]: 54.4% | viability, T/C [54]: 56.7% | viability, T/C [5]: 50.3% | viability, T/C [6]: 45% | viability, T/C [7]: 45.2% | viability, T/C [8]: 46.2% | viability, T/C [55]: 45.7% | viability, T/C [56]: 54.1% | viability, T/C [9]: 51.5% | viability, T/C [10]: 49.8% | viability, T/C [11]: 41.8% | viability, T/C [12]: 38% | viability, T/C [57]: 55.2% | viability, T/C [58]: 50.2% | viability, T/C [13]: 50.1% | viability, T/C [14]: 44.9% | viability, T/C [15]: 39.1% | viability, T/C [16]: 41.8% | viability, T/C [59]: 48.8% | viability, T/C [60]: 53.9% | viability, T/C [17]: 50.5% | viability, T/C [18]: 46.9% | viability, T/C [19]: 36.2% | viability, T/C [20]: 36.7%

Cn1ncnc1C1c2n[nH]c(=O)c3cc(F)cc(c23)NC1c1ccc(F)cc1 (stereo not given) + NC1CCC(NC2CC2c2ccccc2)CC1
IC50 (second compound 0.1 µM): > 100 nM | IC50 (second compound 0.316 µM): > 100 nM | IC50 (second compound 1 µM): > 100 nM | IC50 (second compound 3.16 µM): > 100 nM | IC50 (second compound 10 µM): > 100 nM | viability, T/C (second compound 0.1 µM, first compound 0.000316 µM): 109% | viability, T/C (second compound 0.1 µM, first compound 0.001 µM): 99.9% | viability, T/C [51]: 98% | viability, T/C [52]: 94.1% | viability, T/C [1]: 83% | viability, T/C [2]: 87.3% | viability, T/C (second compound 0.316 µM, first compound 0.000316 µM): 103% | viability, T/C (second compound 0.316 µM, first compound 0.001 µM): 92.4% | viability, T/C [53]: 89.8% | viability, T/C [54]: 92.8% | viability, T/C [5]: 85.1% | viability, T/C [6]: 80.6% | viability, T/C (second compound 1 µM, first compound 0.000316 µM): 90.5% | viability, T/C (second compound 1 µM, first compound 0.001 µM): 95.5% | viability, T/C [55]: 90.1% | viability, T/C [56]: 87.2% | viability, T/C [9]: 81.8% | viability, T/C [10]: 73.6% | viability, T/C (second compound 3.16 µM, first compound 0.000316 µM): 100% | viability, T/C (second compound 3.16 µM, first compound 0.001 µM): 96.5% | viability, T/C [57]: 95% | viability, T/C [58]: 85.9% | viability, T/C [13]: 85.2% | viability, T/C [14]: 76.3% | viability, T/C (second compound 10 µM, first compound 0.000316 µM): 93.7% | viability, T/C (second compound 10 µM, first compound 0.001 µM): 97.2% | viability, T/C [59]: 92.8% | viability, T/C [60]: 84.6% | viability, T/C [17]: 82% | viability, T/C [18]: 74.2%

NS(=O)(=O)OCC1CC(n2ccc3c(NC4CCc5ccccc54)ncnc32)CC1O (stereo not given) + NC1CCC(NC2CC2c2ccccc2)CC1
IC50 (second compound 0.1 µM): 28.1 nM | IC50 (second compound 0.316 µM): 31.8 nM | IC50 (second compound 1 µM): 26.3 nM | IC50 (second compound 3.16 µM): 25.8 nM | IC50 (second compound 10 µM): 25.4 nM | viability, T/C [21]: 77.7% | viability, T/C [22]: 49% | viability, T/C [23]: 26.5% | viability, T/C [24]: 16.8% | viability, T/C [25]: 13.8% | viability, T/C [26]: 7.17% | viability, T/C [27]: 69.6% | viability, T/C [28]: 51.4% | viability, T/C [29]: 28.9% | viability, T/C [30]: 15.1% | viability, T/C [31]: 10.3% | viability, T/C [32]: 6.4% | viability, T/C [33]: 71.8% | viability, T/C [34]: 47.3% | viability, T/C [35]: 25.5% | viability, T/C [36]: 13.7% | viability, T/C [37]: 11.1% | viability, T/C [38]: 7.37% | viability, T/C [39]: 70.7% | viability, T/C [40]: 47.5% | viability, T/C [41]: 24.4% | viability, T/C [42]: 15.6% | viability, T/C [43]: 12.2% | viability, T/C [44]: 7.55% | viability, T/C [45]: 74.9% | viability, T/C [46]: 46.5% | viability, T/C [47]: 23.6% | viability, T/C [48]: 15.3% | viability, T/C [49]: 9.78% | viability, T/C [50]: 5.36%
